The values below come from the supplement of paper PMC10307832.

Common to all, as to test: relative viability (nuclei count vs DMSO), 5 days (fraction); higher = more cells survive
Compound in the assay “AZD5582 + Alpelisib”: C[C@@H](C(=O)N[C@@H](C1CCCCC1)C(=O)N2CCC[C@H]2C(=O)N[C@@H]3[C@@H](CC4=CC=CC=C34)OCC#CC#CCO[C@@H]5CC6=CC=CC=C6[C@@H]5NC(=O)[C@@H]7CCCN7C(=O)[C@H](C8CCCCC8)NC(=O)[C@H](C)NC)NC [AZD5582] + Cc1nc(NC(=O)N2CCC[C@H]2C(N)=O)sc1-c1ccnc(C(C)(C)C(F)(F)F)c1 [Alpelisib] (partner 2 µM)
Put shortly: (§1)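 Dosing by pin tool came one day after lung cancer cell lines were seeded in 1536-well plates, using either one drug or a fixed anchor-drug dose plus five library-drug doses (not always all listed) in √10 steps. After 5 days, nuclei were counted on 4× images. Relative viability is treated-well nuclei count divided by vehicle-well nuclei count, and values are medians of duplicate plates.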

Compound in assay [1]: Cn1nnc2c(C(N)=O)ncn2c1=O [Temozolomide] + CC(C)C[C@H](NC(=O)[C@H](Cc1ccccc1)NC(=O)c1cnccn1)B(O)O [Bortezomib] (partner 0.002 µM)
Put shortly: as §1

Compound in the assay “Temozolomide + AZD7762”: Cn1nnc2c(C(N)=O)ncn2c1=O [Temozolomide] + NC(=O)Nc1cc(-c2cccc(F)c2)sc1C(=O)N[C@H]1CCCNC1 [AZD7762] (partner 0.2 µM)
In a few lines:
as §1

Compound in the assay “Temozolomide + Olaparib”: Cn1nnc2c(C(N)=O)ncn2c1=O [Temozolomide] + O=C(c1cc(Cc2n[nH]c(=O)c3ccccc23)ccc1F)N1CCN(C(=O)C2CC2)CC1 [Olaparib] (partner 8 µM)
Put shortly: as §1

With NCI-H1703, the relative viability is 0.208 with AZD5582 + Alpelisib (first compound 0.001581 µM); 0.323 with AZD5582 + Alpelisib (first compound 0.005 µM); 0.358 in the assay with AZD5582 + Alpelisib (first compound 0.01581 µM); 0.255 with AZD5582 + Alpelisib (first compound 0.05 µM); 0.29 in assay [1] (first compound 0.2 µM); 0.471 in assay [1] (first compound 0.6325 µM). Moreover, the relative viability in assay [1] (first compound 2 µM) turned out to be 0.365; in assay [1] (first compound 6.325 µM), 0.241; in assay [1] (first compound 20 µM) it was 0.284; with Temozolomide + AZD7762 (first compound 0.2 µM), 0.137; with Temozolomide + AZD7762 (first compound 0.6325 µM), 0.1; with Temozolomide + AZD7762 (first compound 2 µM), 0.125. In addition, the relative viability in the assay with Temozolomide + AZD7762 (first compound 6.325 µM) stood at 0.147; in the assay with Temozolomide + AZD7762 (first compound 20 µM), 0.107; with Temozolomide + Olaparib (first compound 0.2 µM), 0.497; with Temozolomide + Olaparib (first compound 0.6325 µM) it was 0.43; with Temozolomide + Olaparib (first compound 2 µM), 0.469; in the assay with Temozolomide + Olaparib (first compound 6.325 µM), 0.405. In addition, the relative viability with Temozolomide + Olaparib (first compound 20 µM) was determined as 0.448.
